The values below are quoted from earlier work in patent EP1935424A1, “PHARMACEUTICAL COMPOSITIONS COMPRISING COMBINED ANTIDIABETIC SUBSTANCES FOR USE IN DIABETES MELLITUS” (ESPINOZA ABDALA, Leopoldo de Jesús, priority 2005, dated 2007).

Like-named read-outs stand apart in the source and are kept apart here. A value given as a limit tells only on which side of the number the result lay.

The conditions of series [1]: for absorption: oral / gastrointestinal tract, in words; for half-life (clearance half-life in plasma): parent compound; for eliminated by renal route without being metabolized: share of the administered dose as non-metabolized drug; for metabolized by: enzymes named; for bioavailability / tmax (plasma peak following administration): oral.
[2] abbreviates: route of clearance, table Sulfonylureas: Pharmacokinetc Properties.
Where [3] appears, read: table Sulfonylureas: Pharmacokinetc Properties, unit not given.

Consider `C[C@H]1O[C@H](O[C@H]2[C@H](O)[C@@H](O)[C@@H](O[C@H]3[C@H](O)[C@@H](O)C(O)O[C@@H]3CO)O[C@@H]2CO)[C@H](O)[C@@H](O)[C@@H]1N[C@H]1C=C(CO)[C@@H](O)[C@H](O)[C@H]1O` (some centres unmarked) [Acarbose], for which the absorbed orally in series [1] (in vivo, po) was under 2%. In addition, the absorption entry in series [1] is given as “poorly absorbed orally”.
`CCCNC(=O)NS(=O)(=O)c1ccc(Cl)cc1` [Chlorpropamide]: in series [1], the “half-life (clearance half-life in plasma)” value is 24 to 48 h and the “eliminated by renal route without being metabolized” value is “about 20%”. Besides, the Clearance entry in series [1] (setting [2]) was “Hepatic and renal”. In addition, in series [1] (setting [3]), the Action duration was 24-72.
For the compound `COc1ccc(Cl)cc1C(=O)NCCc1ccc(S(=O)(=O)NC(=O)NC2CCCCC2)cc1` [Glibenclamide], in series [1] (in vivo), the Action duration is given as 12-16 and the Clearance entry is listed as “Hepatic”.
Take `Cc1ccc(S(=O)(=O)NC(=O)NN2CC3CCCC3C2)cc1` (centres unmarked) [Glicazide]: the Clearance entry in series [1] (setting [2]) is recorded as “Hepatic”. Moreover, in series [1] (setting [3]), the Action duration was 12-13.
With `CCC1=C(C)CN(C(=O)NCCc2ccc(S(=O)(=O)NC(=O)N[C@H]3CC[C@H](C)CC3)cc2)C1=O` [Glimepiride], the Clearance result in series [1] (setting [2]) was “Hepatic and renal”. Further, in series [1] (setting [3]), the Action duration is 24.
In the case of `Cc1cnc(C(=O)NCCc2ccc(S(=O)(=O)NC(=O)NC3CCCCC3)cc2)cn1` [Glipizide], in series [1] (setting [3]), the Action duration is given as 5-10.
Turning to `COc1ccc2c(c1)C(=O)N(CCc1ccc(S(=O)(=O)NC(=O)NC3CCCCC3)cc1)C(=O)C2(C)C` [Gliquidone], the Clearance result in series [1] (setting [2]) is recorded as “Hepatic”. Further, the Action duration in series [1] (setting [3]) is 2-4.
As for `CN(C)C(=N)N=C(N)N` [Metformin], the “absorption is completed in” value in series [1] (gastrointestinal tract) is reported as “about 6 hours”. Moreover, in series [1] (of an oral dose in 12 hours), the “excreted by renal route” value is on record as 90%.
Regarding `CC(C)[C@H]1CC[C@H](C(=O)N[C@H](Cc2ccccc2)C(=O)O)CC1` [Nateglinide], in series [1], the “metabolized by” value is “CYP3A4 and CYP2C9”; the bioavailability result is reported as “greater than 70%”; the “tmax (plasma peak following administration)” value (“tmax” below) is 1 h; the absorption entry is recorded as “rapidly absorbed”. Moreover, in series [1], the “half-life (clearance half-life in plasma)” value was “about 1.5 hours” and the “eliminated by renal route without being metabolized” value is “About 16%”. Moreover, the “binds to plasma proteins” value with plasma proteins was 97%.
On to `CCc1ccc(CCOc2ccc(CC3SC(=O)NC3=O)cc2)nc1` (centres unmarked) [Pioglitazone], for which, in series [1], the “metabolized by” value was “CYP3A4 and CYP2C9”; the bioavailability is about 80%; the “tmax” value was 2 h; the “half-life (clearance half-life in plasma)” value was 5 to 6 h. For the same compound, the “clearance half-life for the metabolites” value in series [1] (three active metabolites) was 16 to 24 h. For the same compound, the “binds to plasma proteins” value with plasma proteins is “more than 99%”.
In the case of `CCOc1cc(CC(=O)N[C@@H](CC(C)C)c2ccccc2N2CCCCC2)ccc1C(=O)O` [Repaglinide], in series [1], the “metabolized by” value is “cytochrome P450 and by glucuronidases”; the “tmax” value was 1 h; the absorption entry was “rapidly absorbed”; the “half-life (clearance half-life in plasma)” value is “about 1 hours”. The “eliminated, time following administration” value in series [1] (in vivo) was 4 to 6 h. Further, the “insulinotropic response to a meal occurs after taking an oral dose” value in series [1] (patients with type 2 diabetes, oral dose) is at most 30 min. In the series with plasma proteins, the “binds to plasma proteins” value was “more than 98%”.
On to `CN(CCOc1ccc(CC2SC(=O)NC2=O)cc1)c1ccccn1` (centres unmarked) [Rosiglitazone], for which, in series [1], the “metabolized by” value was “cytochrome P450 isoenzymes 2C8 and 2C9”; the bioavailability is recorded as 99%; the “tmax” value is 1 h; the “half-life (clearance half-life in plasma)” value is 3 to 4 h. Besides, in series [1] (in vivo), the eliminated in feces is on record as 23% and the eliminated in urine was 64%. For the same compound, the “binds to plasma proteins” value with plasma proteins was 99.8%.
